This note sets out measurements from BindingDB's records for PubMed 7908055 (Case Western Reserve University, 1994).

In experiment [1] the target is D(2) dopamine receptor (Rattus norvegicus, UniProt P61169).
The target of experiment [2] is T1, 5-hydroxytryptamine receptor 2C (Rattus norvegicus, UniProt P08909).
T1 sequence (P08909 whole entry): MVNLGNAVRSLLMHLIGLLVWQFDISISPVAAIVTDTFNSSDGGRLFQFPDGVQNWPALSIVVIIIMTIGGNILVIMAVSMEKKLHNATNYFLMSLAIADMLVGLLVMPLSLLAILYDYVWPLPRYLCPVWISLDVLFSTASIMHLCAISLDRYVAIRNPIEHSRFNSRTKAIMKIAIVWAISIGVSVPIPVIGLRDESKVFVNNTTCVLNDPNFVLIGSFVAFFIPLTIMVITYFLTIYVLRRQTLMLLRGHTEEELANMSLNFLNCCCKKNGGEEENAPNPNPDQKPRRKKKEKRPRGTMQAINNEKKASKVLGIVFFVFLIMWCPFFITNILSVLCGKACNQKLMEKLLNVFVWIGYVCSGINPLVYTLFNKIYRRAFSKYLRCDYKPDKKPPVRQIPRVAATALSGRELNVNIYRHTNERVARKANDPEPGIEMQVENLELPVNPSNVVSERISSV

Experiment [3] concerns the target 5-hydroxytryptamine receptor 2A (Rattus norvegicus, UniProt P14842).

Chain of 5-hydroxytryptamine receptor 2A (P14842 whole entry): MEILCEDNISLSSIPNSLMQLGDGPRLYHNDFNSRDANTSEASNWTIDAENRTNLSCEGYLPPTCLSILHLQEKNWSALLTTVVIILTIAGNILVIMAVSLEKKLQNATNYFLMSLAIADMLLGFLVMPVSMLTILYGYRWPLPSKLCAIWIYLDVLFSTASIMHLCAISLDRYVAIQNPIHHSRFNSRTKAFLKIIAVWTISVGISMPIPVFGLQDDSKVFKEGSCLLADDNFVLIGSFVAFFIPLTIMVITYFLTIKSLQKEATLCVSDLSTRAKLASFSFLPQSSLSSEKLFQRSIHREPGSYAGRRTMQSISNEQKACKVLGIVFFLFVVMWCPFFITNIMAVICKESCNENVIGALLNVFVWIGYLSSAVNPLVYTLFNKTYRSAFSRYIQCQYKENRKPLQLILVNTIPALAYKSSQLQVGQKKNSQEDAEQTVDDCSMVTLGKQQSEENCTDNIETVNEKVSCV
Chain of D(2) dopamine receptor (P61169 whole entry): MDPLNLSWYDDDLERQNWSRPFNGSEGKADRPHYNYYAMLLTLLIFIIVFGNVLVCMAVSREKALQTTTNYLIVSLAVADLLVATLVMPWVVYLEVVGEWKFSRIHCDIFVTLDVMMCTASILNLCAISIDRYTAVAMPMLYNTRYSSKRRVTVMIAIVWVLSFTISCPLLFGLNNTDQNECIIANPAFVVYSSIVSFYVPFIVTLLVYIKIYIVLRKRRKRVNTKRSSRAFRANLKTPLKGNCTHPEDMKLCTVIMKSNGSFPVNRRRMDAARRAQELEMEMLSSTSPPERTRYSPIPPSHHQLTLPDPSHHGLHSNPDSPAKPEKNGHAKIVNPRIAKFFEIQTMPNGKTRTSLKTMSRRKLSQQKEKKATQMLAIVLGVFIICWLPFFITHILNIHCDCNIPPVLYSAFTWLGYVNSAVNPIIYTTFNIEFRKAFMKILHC

Regarding `CN1CCN(C2=Nc3cc(F)ccc3Cc3ccccc32)CC1`, the Ki in experiment [1] was 316 nM; in experiment [2], 19.9 nM; in experiment [3], 6.3 nM. `CN1CCN(C2=Nc3ccccc3Cc3ccccc32)CC1`: the Ki in experiment [1] is 501 nM; in experiment [3], 12.6 nM. In experiment [3], `CN(C)CC/C=C1\c2ccccc2Sc2ccc(Cl)cc21` had a Ki of 0.39 nM. Regarding `CN1CCCCC1CCN1c2ccccc2Sc2ccc([S+](C)[O-])cc21` (stereo unspecified), affinity in experiment [1] was put at a Ki of 7.94 nM. This counts as single-digit nanomolar. Take `CCNC(=O)N1CCN(CCCC(c2ccc(F)cc2)c2ccc(F)cc2)CC1`: the Ki in experiment [1] amounted to 501 nM; in experiment [2] it was 1260 nM; in experiment [3] it was 12.6 nM. For `O=c1[nH]c2ccccc2n1C1CCN(CCCC(c2ccc(F)cc2)c2ccc(F)cc2)CC1` [1-(1-(4,4-bis(4-fluorophenyl)butyl)piperidin-4-yl)-1H-benzo[d]imidazol-2(3H)-one], the Ki in experiment [2] was above 10000 nM. On to `CN1CCN(CCCN2c3ccccc3Sc3ccc(Cl)cc32)CC1` [2-chloro-10-[3-(4-methylpiperazin-1-yl)propyl]phenothiazine;ethane-1,2-disulfonic acid], for which the Ki in experiment [2] stood at 79.4 nM; in experiment [3] it was 6.3 nM. In turn, `CN1CCN(C2=Nc3ccccc3Sc3ccc(Cl)cc32)CC1` [2-chloro-11-(4-methylpiperazin-1-yl)dibenzo[b,f][1,4]thiazepine] registered a Ki in experiment [3] of 0.79 nM.

For the compound `CCN1CCC[C@H]1CNC(=O)c1c(O)c(Cl)cc(Cl)c1OC` [3,5-Dichloro-N-(1-ethyl-pyrrolidin-2-ylmethyl)-2-hydroxy-6-methoxy-benzamide (raclopride)], the inhibitory constant (Ki) in experiment [2] and in experiment [3] was 5010 nM in each case.

`OCCN1CCN(CCCN2c3ccccc3Sc3ccc(Cl)cc32)CC1` [4-[3-(2-chlorophenothiazin-10-yl)propyl]-1-piperazineethanol]: the Ki in experiment [1] came out at 0.63 nM; in experiment [2], 50.1 nM; in experiment [3] it was 2.51 nM. As for `CC1CN(CCCn2c3ccccc3c3ccccc32)CC(C)N1` (stereo unspecified) [9-[3-(3,5-dimethylpiperazin-1-yl)propyl]-9H-carbazole], the Ki in experiment [3] was determined as 5010 nM. In experiment [1], `CN1CCN(C2=Nc3ccccc3Oc3ccc(Cl)cc32)CC1` [13-chloro-10-(4-methylpiperazin-1-yl)-2-oxa-9-azatricyclo[9.4.0.0^{3,8}]pentadeca-1(11),3,5,7,9,12,14-heptaene] displayed an inhibition constant (Ki) of 7.94 nM. For the compound `CC1CCN(CCCC(=O)c2ccc(F)cc2)CC1` [CAS_3575-80-2], the inhibitory constant (Ki) in experiment [1] was 200 nM; in experiment [2], 1260 nM. `CC(=O)c1ccc2c(c1)N(CCCN1CCN(CCO)CC1)c1ccccc1S2` [CAS_5714-00-1]: in experiment [2], the Ki stood at 1000 nM. For the compound `CN1CCN(C2=Cc3cc(Cl)ccc3C(=CC#N)c3ccccc32)CC1` [CAS_79781-95-6], the Ki in experiment [1] amounted to 39.8 nM; in experiment [2], 25.1 nM; in experiment [3], 0.63 nM. For the compound `CN1CCN(CC/C=C2/c3ccccc3Sc3ccc(S(=O)(=O)N(C)C)cc32)CC1` [MLS000028463], the Ki in experiment [1] is 0.63 nM; in experiment [2], 1580 nM. With `CCc1c(C)[nH]c2c1C(=O)C(CN1CCOCC1)CC2` (stereo unspecified) [Moban], the Ki turned out to be 15.8 nM in experiment [1] and 501 nM in experiment [3]. With `CN1CCN(C2=Nc3cscc3C(=CC#N)c3cscc32)CC1` [NSC_3086153], the Ki in experiment [1] worked out at 1580 nM; in experiment [2], 63.1 nM. On to `OC1(c2ccc(Cl)c(C(F)(F)F)c2)CCN(CCCC(c2ccc(F)cc2)c2ccc(F)cc2)CC1` [Penfluridol], for which the affinity in experiment [3] corresponds to a Ki of 63.1 nM. With `O=C1CC2(CCCC2)CC(=O)N1CCCCN1CCN(c2nsc3ccccc23)CC1` [TIOSPERONE], the inhibitory constant (Ki) in experiment [1] stood at 0.5 nM; in experiment [2] it was 10 nM.

One may read the Ki as the dissociation constant of the complex between target and ligand, obtained from inhibition or displacement. High values mean a looser hold on the target, low ones a stronger hold on the target.
